According to patent publication US8815831B2, “Treatment of Acinetobacter with alginate oligomers and antibiotics” (priority 2009, dated 2014):
Blank lines part the entries; values can stand above or below the compound they belong to.

How the values were obtained:
[1] = system: Multidrug resistant Acinetobacter baumannii isolated from a source in Libya; assay: Minimum Inhibitory Concentration assay (96-well, CAMHB), Examples 1 and 2
Experimental: Antibiotics were diluted in cation-adjusted Mueller-Hinton broth (CAMHB) or CAMHB with G-fragments (Oligo CF-5/20 90-95% G residues) at 2%, 6% or 10%.
Bacterial cultures at 0.5 McFarland standard were diluted ten-fold in CAMHB and 5 μl added to the microtiter plates containing the antibiotic serial dilutions. Plates were wrapped in parafilm and incubated at 37° C. for 16-20 hours. MIC values for each antibiotic were determined as the lowest concentration at which there was no visible growth.

[2] = system: Staphylococcus aureus NCTC 6571 MIC CONTROL STRAIN (Oxford Staph.); assay: Minimum Inhibitory Concentration assay (96-well, CAMHB), Example 1; format: cell-based; settings: S. Aur
Acinetobacter strains = assay: MIC assays of Example 3, Tables 3 and 4 taken together; format: cell-based, Acinetobacter baumannii and Acinetobacter Iwoffii; settings: in one Acinetobacter strain or another
Experimental: (§1) MIC assays as described in Example 1 were conducted using the following Acinetobacter strains, antibiotics and concentrations of OligoCF-5/20 as described in Tables 3 and 4.
(§2) • V19* 7789 Acinetobacter baumannii • V20* 8065 Acinetobacter Iwoffii MDR Strains • V4* MDR ACB (Libya) Acinetobacter baumannii • V9* (Egypt) Acinetobacter baumannii • V10* (Egypt) Acinetobacter Iwoffii • V22* 6056 Acinetobacter Iwoffii
Further MIC assays were conducted with the various strains and antibiotics recited in Table 4 using the following protocol.

[3] = system: Acinetobacter baumannii strains V9, V19; assay: MIC assays as described in Example 1, Example 3 (Table 3); format: cell-based; settings: strain V19
Experimental: as §1, §2

[4] = A. bau, +2% G (G-fragments Oligo CF-5/20)
[5] = A. bau, +6% G (G-fragments Oligo CF-5/20)
[6] = A. bau, +10% G (G-fragments Oligo CF-5/20)
[7] = +2% G (G-fragments Oligo CF-5/20)
[8] = +6% G (G-fragments Oligo CF-5/20)
[9] = +10% G (G-fragments Oligo CF-5/20)

MIC value, Ceftazidime with azithromycin at 4 μg/ml [1, 4]: <4 μg/ml Az
MIC value, Ceftazidime with azithromycin at 8 μg/ml [1, 4]: <8 μg/ml Az
MIC value, Ciprofloxacin with azithromycin at 8 μg/ml [1, 4]: <8 μg/ml Az
MIC value, Ciprofloxacin with azithromycin at 4 μg/ml: azithromycin part of the inhibitory combination ([1]; A. bau, +2% G (G-fragments Oligo CF-5/20), together with 64 Cpr): 4 µg/mL
MIC value, Ceftazidime with azithromycin at 4 μg/ml [1, 5]: <4 μg/ml Az
MIC value, Ceftazidime with azithromycin at 8 μg/ml [1, 5]: <8 μg/ml Az
MIC value, Ciprofloxacin with azithromycin at 4 μg/ml [1, 5]: <4 μg/ml Az
MIC value, Ciprofloxacin with azithromycin at 8 μg/ml [1, 5]: <8 μg/ml Az
MIC value, Ceftazidime with azithromycin at 4 μg/ml [1, 6]: <4 μg/ml Az
MIC value, Ceftazidime with azithromycin at 8 μg/ml [1, 6]: <8 μg/ml Az
MIC value, Ciprofloxacin with azithromycin at 4 μg/ml [1, 6]: <4 μg/ml Az
MIC value, Ciprofloxacin with azithromycin at 8 μg/ml [1, 6]: <8 μg/ml Az
effect of OligoCF-5/20 on the MIC value for azithromycin ([1]; Acinetobacter organism, azithromycin 8 or 4 μg/ml): greatly reduces
MIC value, Ceftazidime with azithromycin at 4 μg/ml ([2]; 0 G (no G-fragments)): <4 μg/ml Az
MIC value, Ceftazidime with azithromycin at 8 μg/ml ([2]; 0 G (no G-fragments)): <8 μg/ml Az
MIC value, Ciprofloxacin with azithromycin at 4 μg/ml ([2]; 0 G (no G-fragments)): <4 μg/ml Az
MIC value, Ciprofloxacin with azithromycin at 8 μg/ml ([2]; 0 G (no G-fragments)): <8 μg/ml Az
MIC value, Ceftazidime with azithromycin at 4 μg/ml [2, 7]: <4 μg/ml Az
MIC value, Ceftazidime with azithromycin at 8 μg/ml [2, 7]: <8 μg/ml Az
MIC value, Ciprofloxacin with azithromycin at 4 μg/ml [2, 7]: <4 μg/ml Az
MIC value, Ciprofloxacin with azithromycin at 8 μg/ml [2, 7]: <8 μg/ml Az
MIC value, Ceftazidime with azithromycin at 4 μg/ml [2, 8]: <4 μg/ml Az
MIC value, Ceftazidime with azithromycin at 8 μg/ml [2, 8]: <8 μg/ml Az
MIC value, Ciprofloxacin with azithromycin at 4 μg/ml [2, 8]: <4 μg/ml Az
MIC value, Ciprofloxacin with azithromycin at 8 μg/ml [2, 8]: <8 μg/ml Az
MIC value, Ceftazidime with azithromycin at 4 μg/ml [2, 9]: <4 μg/ml Az
MIC value, Ceftazidime with azithromycin at 8 μg/ml [2, 9]: <8 μg/ml Az
MIC value, Ciprofloxacin with azithromycin at 4 μg/ml [2, 9]: <4 μg/ml Az
MIC value, Ciprofloxacin with azithromycin at 8 μg/ml [2, 9]: <8 μg/ml Az
effect of increasing concentrations of OligoCF-5/20 (0-10%) on MIC values (Tables 3 and 4) (Acinetobacter strains): decreases MIC values
SMILES: CC[C@H]1OC(=O)[C@H](C)[C@@H](O[C@H]2C[C@@](C)(OC)[C@@H](O)[C@H](C)O2)[C@H](C)[C@@H](O[C@@H]2O[C@H](C)C[C@H](N(C)C)[C@H]2O)[C@](C)(O)C[C@@H](C)CN(C)[C@H](C)[C@@H](O)[C@]1(C)O [azithromycin]
inhibition of growth by azithromycin combined with G-fragments ([1]; 4 μg/ml azithromycin and 2% or more G-fragments): completely inhibited
inhibition of growth by azithromycin in the absence of G-fragments ([1]; azithromycin at 4 μg/ml and at 8 μg/ml, no G-fragments): not capable of inhibiting growth

effect of increasing concentrations of OligoCF-5/20 (0-10%) on MIC values (Tables 3 and 4) (Acinetobacter strains): decreases MIC values
SMILES: CC[C@H]1OC(=O)[C@H](C)[C@@H](O[C@H]2C[C@@](C)(OC)[C@@H](O)[C@H](C)O2)[C@H](C)[C@@H](O[C@@H]2O[C@H](C)C[C@H](N(C)C)[C@H]2O)[C@](C)(O)C[C@@H](C)/C(=N\OCOCCOC)[C@H](C)[C@@H](O)[C@]1(C)O [roxithromycin]

effect of increasing concentrations of OligoCF-5/20 on MIC values (Table 3) [3]: no effect
SMILES: C[C@@H](O)[C@H]1C(=O)N2C(C(=O)O)=C(SCCN=CN)C[C@H]12 [imipenem]
